According to paper PMC6270011, “Design and Synthesis of Arylthiophene-2-Carbaldehydes via Suzuki-Miyaura Reactions and Their Biological Evaluation” (Molecules, 2013):
≈ marks a conversion by molar mass, not a printed value. Where two headings read alike, the source gives them in different places.

Experiments:
[1] = Nitric oxide (NO) scavenging assay; format: biochemical
Text: Nitric oxide (NO) is a free radical causing inflammatory disorders and cancer in the human body when sodium nitroprusside decomposes to produce nitric oxide. The antioxidant activity of various thiophene derivatives has been reported in the literature and it has also been observed that compounds with high antioxidant activity served as antitumor agents. The newly synthesized compounds reacted directly with nitric oxide and inhibited nitrite formation in an excellent way.
The reaction mixtures comprising sample solution (2 µL), phosphate buffer (17 µL) and sodium nitroprusside (20 µL) were incubated at 37 °C for 2 h in well plates. Then Griess reagent (20 µL, 0.3% sulphanilic acid in glacial acetic acid + 0.1% naphthylethylenediamine (NED): equal volumes of both solutions mixed just before use) was added to each well plate and the mixture kept at room temperature for 20 min to develop the color. The absorbance was measured at 528 nm by using an ELISA reader. The results were processed using Gen 5 software. All the reactions were performed in triplicate. Positive control (containing known antioxidant) and control (containing all samples) were run in parallel. Negative control was used to calibrate the instrument. The % age antioxidant activity was determined by using the following formula: % antioxidant activity = [(Absorbance of control − absorbance of sample)/(Absorbance of control)] × 100

[2] = test system: human red blood cells (erythrocytes); format: cell-based; details: for Haemolytic activity, percentage of lysis (Average ± SD): human erythrocytes, 37 °C, 35 min
Description: Three mL of freshly obtained human blood was placed in heparinized tubes to avoid coagulation, gently mixed and poured into a sterile 15 mL Falcon tube and centrifuged for 5 min at 1,000 ×g. The supernatant was discarded and red blood cells were washed three times with chilled (4 °C) sterile isotonic phosphate buffer saline pH 7.4 (5 mL). Erythrocytes (10^8 cells/mL) were maintained for each assay by dilution with phosphate buffer saline. Erythrocytes were counted on a heamacytometer. Twenty µL of each compound was mixed with red blood cells suspension (180 μL) separately. The samples were incubated at 37 °C for 35 min. The samples were placed on ice for 5 min and then agitated at 1,000 ×g for 5 min. Supernatant (100 µL) were taken from each tube and diluted 10 times with chilled (4 °C) phosphate buffered saline. Triton X-100 (0.1% v/v) was taken as a positive control and PBS was negative control and then subjected to the same process. […] The percentage RBSs lyses for each sample was calculated.

Gram-negative bacteria = assay: Antibacterial activity against Gram-negative bacteria (strain not named); format: cell-based
Escherichia coli = assay: Antibacterial activity (disc / inhibition zone) against Escherichia coli; details: for zone of inhibition at 25 µg/mL / zone of inhibition at 50 µg/mL: read-out: Inhibition zone, E.coli
Salmonella typhi = assay: Antibacterial activity (disc / inhibition zone) against Salmonella typhi; details: Salmonella enterica, read-out: Inhibition zone, S. typhi
Bacillus subtilis = assay: Antibacterial activity (disc / inhibition zone) against Bacillus subtilis; details: read-out: Inhibition zone, B. subtilis
Shigella dysenteriae = assay: Antibacterial activity (disc / inhibition zone) against Shigella dysenteriae; details: read-out: Inhibition zone, S. dysenteriae
Staphylococcus aureus = assay: Antibacterial activity (disc / inhibition zone) against Staphylococcus aureus; details: read-out: Inhibition zone, S. aureus
Pseudomonas aeruginosa = assay: Antibacterial activity (disc / inhibition zone) against Pseudomonas aeruginosa; details: read-out: Inhibition zone, P. aeruginosa
urease enzyme = urease enzyme (Canavalia ensiformis, UniProt P07374)
[3] = 25 µg/mL, read-out: % Activity at 25 µg (NO scavenging)
[4] = 50 µg/mL, read-out: % Activity at 50 µg (NO scavenging)
[5] = 100 µg/mL, read-out: % Activity at 100 µg (NO scavenging)

Chain of urease enzyme (P07374 whole entry, looked up): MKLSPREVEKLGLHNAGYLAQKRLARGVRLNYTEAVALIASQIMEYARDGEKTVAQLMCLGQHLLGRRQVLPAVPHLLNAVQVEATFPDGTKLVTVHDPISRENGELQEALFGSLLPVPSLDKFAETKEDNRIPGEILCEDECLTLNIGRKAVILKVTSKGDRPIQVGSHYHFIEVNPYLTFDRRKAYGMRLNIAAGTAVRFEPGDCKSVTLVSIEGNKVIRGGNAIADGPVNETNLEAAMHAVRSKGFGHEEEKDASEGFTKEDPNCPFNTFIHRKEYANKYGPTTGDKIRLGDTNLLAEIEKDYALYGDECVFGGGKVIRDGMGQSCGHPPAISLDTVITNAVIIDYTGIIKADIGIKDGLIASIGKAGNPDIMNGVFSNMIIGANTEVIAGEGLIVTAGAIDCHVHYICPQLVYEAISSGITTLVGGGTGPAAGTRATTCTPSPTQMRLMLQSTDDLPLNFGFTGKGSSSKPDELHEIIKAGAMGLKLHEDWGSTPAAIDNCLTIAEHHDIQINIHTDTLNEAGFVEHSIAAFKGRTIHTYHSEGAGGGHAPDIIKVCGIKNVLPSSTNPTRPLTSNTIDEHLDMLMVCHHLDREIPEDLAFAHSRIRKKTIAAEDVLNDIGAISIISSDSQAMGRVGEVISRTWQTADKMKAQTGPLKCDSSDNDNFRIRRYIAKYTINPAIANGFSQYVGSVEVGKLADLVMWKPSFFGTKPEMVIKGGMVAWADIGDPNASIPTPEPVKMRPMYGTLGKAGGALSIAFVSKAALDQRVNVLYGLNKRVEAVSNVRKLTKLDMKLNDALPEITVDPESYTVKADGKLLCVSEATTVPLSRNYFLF

Structure (SMILES)	inhibition [1, 3] [%]	inhibition [1, 4] [%]	inhibition [1, 5] [%]	Haemolytic activity, percentage of lysis (Average ± SD) [2] [%]	melting point [°C]	zone of inhibition at 25 µg/mL (Escherichia coli) [mm]	zone of inhibition at 50 µg/mL (Escherichia coli) [mm]	zone of inhibition at 25 µg/mL (Salmonella typhi) [mm]	zone of inhibition at 50 µg/mL (Salmonella typhi) [mm]	zone of inhibition at 25 µg/mL (Bacillus subtilis) [mm]	zone of inhibition at 50 µg/mL (Bacillus subtilis) [mm]	zone of inhibition at 25 µg/mL (Shigella dysenteriae) [mm]	zone of inhibition at 50 µg/mL (Shigella dysenteriae) [mm]	zone of inhibition at 25 µg/mL (Staphylococcus aureus) [mm]	zone of inhibition at 50 µg/mL (Staphylococcus aureus) [mm]	zone of inhibition at 25 µg/mL (Pseudomonas aeruginosa) [mm]	zone of inhibition at 50 µg/mL (Pseudomonas aeruginosa) [mm]	further results
Cc1cc(C)cc(-c2csc(C=O)c2)c1 [2g, 4-(3,5-Dimethylphenyl)thiophene-2-carbaldehyde]	13 ± 0.002	28 ± 0.007	43 ± 0.002	4.525 ± 0.075	71 to 73	22.5 ± 0.11	44.5 ± 0.19	32.2 ± 0.11	61 ± 0.16	36 ± 0.08	56 ± 0.24	32 ± 0.01	59 ± 0.44	27 ± 0.08	59 ± 0.44	25 ± 0.06	56 ± 0.04	IC50 (Gram-negative bacteria): 45.2 µg/mL (≈ 209 µM)
NC(N)=S [Thiourea, thiourea, reference compound]	–	–	–	–	–	–	–	–	–	–	–	–	–	–	–	–	–	IC50 (urease inhibition) (urease enzyme): 27.5 µg/mL (≈ 361 µM); %age Activity at 25 μg (urease inhibition) (urease enzyme; 25 µg/mL): 47 ± 0.007%; %age Activity at 50 μg (urease inhibition) (urease enzyme; 50 µg/mL): 77 ± 0.015%
Cc1ccc(-c2csc(C=O)c2)cc1 [2e, 4-p-Tolylthiophene-2-carbaldehyde]	-15 ± 0.04	-12 ± 0.037	3 ± 0.0014	3.356 ± 0.075	58 to 60	32 ± 0.05	62 ± 0.01	22.2 ± 0.14	53 ± 0.12	22.4 ± 0.13	54 ± 0.17	41 ± 0.05	58 ± 0.01	28 ± 0.2	58 ± 0.01	44 ± 0.02	60 ± 0.03	Haemolytic activity, in words [2]: lowest haemolytic property; IC50 (Escherichia coli; read-out: IC50 against Escherichia coli): 40 µg/mL (≈ 198 µM)
